Laboratory results: US8507411B2, “Neoglycorandomization and digitoxin analogs” (priority 2004, dated 2013)
pIC50: −log10 of the molar value.

Columns and labels:
[1] = Hydrolytic stability of the neoglycosidic linkage; type: physicochemical; settings: neutral or basic conditions (pH 7, pH 9), 3 mM in 1:1 DMSO/buffer, one month
Experimental: FIG. 4 is a graphic representation of the results of studies on the hydrolytic stability of neoglycoside 4α. The chemical stability of the neoglycosidic linkage was examined by monitoring the hydrolytic degradation of neoglycoside 4α in a 3 mM solution of 1:1 DMSO/buffer. Three buffers were used, 50 mM acetate buffer (pH 5), 50 mM phosphate buffer (pH 7), and 50 mM Tris buffer (pH 9). Neoglycoside degradation was monitored by reverse phase HPLC on an Agilent Zorbax Eclipse XDB-C8 column (4.6×150 mm) with a flow rate of 0.8 mL min^−1 and a linear gradient of 49% CH3OH/H2O to 89% CH3OH/H2O over 20 min. At t=0, neoglycoside 4α in 500 μL DMSO was added to 500 μL buffer, and the resulting solution was vortexed for 40 sec, then immediately injected onto the HPLC. Peak areas at 220 nm were used to estimate the neoglycoside/aglycon ratio, which is reported as “percent neoglycoside remaining” [Aneoglycoside/(Aneoglycoside+Aaglycon)] for each of the three buffer systems.
Hydrolytic Stability of 4α. The chemical stability of the neoglycosidic linkage was examined by monitoring the hydrolytic degradation of neoglycoside 4α in a 3 mM solution of 1:1 DMSO/buffer. Three buffers were used, 50 mM acetate buffer (pH 5), 50 mM phosphate buffer (pH 7), and 50 mM Tris buffer (pH 9). Neoglycoside degradation was monitored by reverse phase HPLC on an Agilent Zorbax Eclipse XDB-C8 column (4.6×150 mm) with a flow rate of 0.8 mL min^−1 and a linear gradient of 49% CH3OH/H2O to 89% CH3OH/H2O over 20 min. At t=0, neoglycoside 4α in 500 μL DMSO was added to 500 μL buffer, and the resulting solution was vortexed for 40 sec, then immediately injected onto the HPLC. Peak areas at 220 nm were used to estimate the neoglycoside/aglycon ratio, which is reported as “percent neoglycoside remaining” [Aneoglycoside/(Aneoglycoside+Aaglycon)] for each of the three buffer systems (see FIG. 4).
The chemical stability of the neoglycosidic linkage was examined by monitoring the hydrolytic degradation of neoglycoside 4α in a 3 mM solution of 1:1 DMSO/buffer using buffers at three different pHs.

HT-29 = assay: Cell titer-glo cytotoxicity assay, HT-29; type: cell-based, human; settings: HT-29, Cell titer-glo
Text: (§1) FIG. 7 is a graphical summary of the results of the IC50 data from cytotoxicity assays. […] In the assay, live cells are quantified by measuring the luminescent signal resulting from the reaction between cellular ATP and luciferin to form oxyluciferin. The IC50 value for each compound represents at least four replicates of dose-response experiments conducted over six concentrations at two-fold dilutions.
(§2) The anticancer activities of ten panel analogues (3a-c,e,f and 4a-c,e,f) and digitoxin (1) were assessed using a high-throughput cytotoxicity assay on four human cancer cell lines, (FIG. 7) representing lung, colorectal, and ovarian carcinomas, as well as NCI/ADR-RES, a drug-resistant ovarian carcinoma line (For years, NCI/ADR-RES cells have been misidentified as drug-resistant MCF-7 breast adenocarcinoma cells, but recently this line has been shown definitively to be a drug-resistant line derived from OVCAR-8 ovarian adenocarcinoma cells. Liscovitch, M. et al., Cancer Lett. (2007) 245, 350-352.
(§3) All cell lines were maintained as previously reported (Langenhan, J. M. et al., Proc. Natl. Acad. Sci. (2005) 102, 12305-12310.) Cells were harvested by trypsinization using 0.25% trypsin and 0.1% EDTA and then counted in a Cellometer Auto T4 cell counter (Nexcelom, inc), before dilution for assay plating. […] Each plate was read for luminescence. […]

NCI-H460 = assay: Cell titer-glo cytotoxicity assay, NCI-H460; type: cell-based, human
Text: as §1, §2, §3

Row | Compound | hydrolytic stability [1] | pIC50 (HT-29) | pIC50 (NCI-H460)
1 | CON([C@H]1CC[C@@]2(C)[C@H](CC[C@@H]3[C@@H]2CC[C@]2(C)[C@@H](C4=CC(=O)OC4)CC[C@]32O)C1)[C@@H]1O[C@H](CO)[C@@H](O)[C@H](O)[C@@H]1O [27β, D-mannoside] | no hydrolytic degradation |  | 
2 | CON([C@H]1CC[C@@]2(C)[C@H](CC[C@@H]3[C@@H]2CC[C@]2(C)[C@@H](C4=CC(=O)OC4)CC[C@]32O)C1)[C@H]1OC[C@H](O)[C@H](O)[C@@H]1O [5β, L-riboside] |  | 7.10 | 
3 | CON([C@H]1CC[C@@]2(C)[C@H](CC[C@@H]3[C@@H]2CC[C@]2(C)[C@@H](C4=CC(=O)OC4)CC[C@]32O)C1)[C@H]1OC[C@H](O)[C@@H](O)[C@@H]1O [23β, L-xyloside] |  | 7.18 | 7.26
